Reference: patent publication US20260374753A1, “NOVEL COMPOUND AND PREPARATION METHOD THEREFOR” (ASTRION INC., priority 2023, published 2026)

Key:
[1] = test system: ANO1; assay: Western blot: AON-MG23-02 derivatives, ANO1 protein expression in glioblastoma cell line; assay type: cell-based, human; settings: U87-MG; 0, 8, 16, and 32 μM; 48 hours; compared to the untreated control
Description: (§1) The inhibitory effects of AON-MG23-02 derivatives AON-MG23-05, AON-MG23-06, AON-MG23-07, and AON-MG23-08 on ANO1 and EGFR protein expression in a glioblastoma cell line were compared. A human glioblastoma cell line U87-MG was seeded at a density of 100×10^4 cells/dish in a 60 mm dish, and cultured for 24 hours. Thereafter, the cells were treated with 0, 8, 16, and 32 μM of the AON-MG23-05, AON-MG23-06, AON-MG23-07, and AON-MG23-08 derivatives, respectively, and cultured for 48 hours. The cultured cells were harvested, and the harvested cells were lysed for Western blotting. An anti-ANO1 antibody (Abcam, ab53212), an anti-pEGFR antibody (Cell Signaling, #4407S), an anti-EGFR antibody (Cell Signaling, #4267S), and an anti-ACTIN antibody (sigma, #A2066) were used as antibodies for Western blotting. Protein concentration was quantified using the […] (a protein quantitation assay, a bovine serum albumin assay) (Pierce, Cat. 23225). […] The amount of each protein was quantified and analyzed using Image J software.

[2] = test system: U87-MG; assay: Matrigel invasion (metastasis inhibition) of AON-MG23-02 derivatives in human glioblastoma; assay type: cell-based; settings: 0, 8, 16, and 32 μM, 24 hours, compared to the untreated control
Description: A human glioblastoma cell line U87-MG was seeded at a density of 8×10^4 cells/well on the top of a Matrigel-coated filter (Transwell invasion chambers, Corning), and then treated with 0, 8, 16, and 32 μM of each of the compound derivatives AON-MG23-05, AON-MG23-06, AON-MG23-07, and AON-MG23-08 of the present invention, and cultured at 37 °C in a CO2 incubator for 24 hours. After the culturing was completed, the cells were fixed and stained using a Diff-Quick stain kit (Sysmex, Kobe, Japan). Images of the stained cells were taken under a microscope, the cells were counted using Image J software, and statistical analysis was then performed.

[3] = test system: EGFR; assay: Western blot: AON-MG23-02 derivatives, EGFR protein expression in glioblastoma cell line; assay type: cell-based, human; settings: U87-MG; 0, 8, 16, and 32 μM; 48 hours; compared to the untreated control
Description: as §1

[4] = test system: U87-MG cells; assay: CCK assay of cell proliferation inhibition in human glioblastoma cells; assay type: cell-based; settings: 0, 1, 2, and 4 μM, 48 hours, 450 nm
Description: Human glioblastoma cell line U87-MG cells were seeded at a density of 1×10^4 cells/well in a 96-well plate and cultured for 24 hours. Thereafter, the cells were treated with DMSO as a control and the compound AON-MG23-01 or AON-MG23-02 of the present invention, and then cultured for 48 hours. The compound of the present invention was treated at various concentrations of 0, 1, 2, and 4 μM. 10 μL of a CCK reagent was added and reacted for an hour, and the absorbance was then measured at 450 nm.

[5] = test system: U87-MG; assay: Matrigel Transwell invasion (metastasis inhibition) in human glioblastoma; assay type: cell-based; settings: 0, 1, 2, and 4 μM, 24 hours, compared to the untreated control
Description: A human glioblastoma cell line U87-MG was seeded at a density of 8×10^4 cells/well on Matrigel-coated filters (Transwell invasion chambers, Corning), and the cells were then treated with the compound (AON-MG23-01 or AON-MG23-02; each at 0, 1, 2, and 4 μM) of the present invention, and cultured at 37 °C in a CO2 incubator for 24 hours. After the culturing was completed, the cells were fixed and stained using the Diff-Quick Stain kit (Sysmex, Kobe, Japan). Images of the stained cells were taken under a microscope, the cells were counted using Image J software, and statistical analysis was then performed.

[6] = test system: EGFR; assay: Western blot comparison with EGFR inhibitor and ANO1 inhibitor: EGFR expression; assay type: cell-based, human; settings: U87-MG; 4 μM AON-MG23-02; 48 hours; vs untreated, 2 μM Osimertinib, 100 μM CaCCinh-A01, and their combination
Description: (§2) The inhibitory effects of the compound AON-MG23-02 of the present invention, the EGFR inhibitor Osimertinib, and the ANO1 inhibitor CaCCinh-A01 on the expression of ANO1, EGFR, and pEGFR proteins in a glioblastoma cell line were compared. A human glioblastoma cell line U87-MG was seeded at a density of 100×10^4 cells/dish in a 60 mm dish, and cultured for 24 hours. Thereafter, the cells were treated with 4 μM of AON-MG23-02, 2 μM of the EGFR inhibitor Osimertinib, 100 μM of the ANO1 inhibitor CaCCinh-A01, or a combination of 2 μM of Osimertinib and 100 μM of CaCCinh-A01, and cultured for 48 hours. The cultured cells were harvested and the harvested cells were lysed for Western blotting. An anti-ANO1 antibody (Abcam, ab53212), an anti-pEGFR antibody (Cell Signaling, #4407S), an anti-EGFR antibody (Cell Signaling, #4267S), and an anti-ACTIN antibody (sigma, #A2066) were used as antibodies for Western blotting. Protein concentration was quantified using the BSA method (a protein quantitation assay, a bovine serum albumin assay) (Pierce, Cat. 23225). […] The amount of each protein was quantified and analyzed using Image J software.

[7] = test system: U87-MG; assay: Matrigel invasion comparison with EGFR inhibitor and ANO1 inhibitor in human glioblastoma; assay type: cell-based; settings: 4 μM AON-MG23-02, 16 hours, vs untreated, Osimertinib, 100 μM CaCCinh-A01
Description: A human glioblastoma cell line U87-MG was seeded at a density of 6×10^4 cells/well on the top of a Matrigel-coated filter (Transwell invasion chambers, Corning), treated with 4 μM of the compound AON-MG23-02 of the present invention, […] of the EGFR inhibitor Osimertinib, 100 μM of the ANO1 inhibitor CaCCinh-A01, or a combination of 4 μM of Osimertinib and 100 μM of CaCCinh-A01, and then cultured at 37 °C in a CO2 incubator for 16 hours. After the culturing was completed, the cells were fixed and stained using a Diff-Quick stain kit (Sysmex, Kobe, Japan). Images of the stained cells were taken under a microscope, the cells were counted using Image J software, and statistical analysis was then performed.

[8] = test system: pEGFR; assay: Western blot comparison with EGFR inhibitor and ANO1 inhibitor: pEGFR expression; assay type: cell-based, human; settings: U87-MG; 4 μM AON-MG23-02; 48 hours; vs untreated, 2 μM Osimertinib, 100 μM CaCCinh-A01, and their combination
Description: as §2

[9] = test system: ANO1; assay: Western blot comparison with EGFR inhibitor and ANO1 inhibitor: ANO1 expression; assay type: cell-based, human; settings: U87-MG; 4 μM AON-MG23-02; 48 hours; vs untreated, 2 μM Osimertinib, 100 μM CaCCinh-A01, and their combination
Description: as §2

SMILES: O=C1c2ccccc2CN1Cc1ccc(CCN(CCO)Cc2ccc3ccccc3c2)cc1 [AON-MG23-05, 2-(4-(2-((2-hydroxyethyl)(naphthalen-2-ylmethyl)amino)ethyl)benzyl)isoindolin-1-one]
- expression of ANO1 protein (derivatives) [1]: reduced expression of ANO1 and EGFR proteins compared to the untreated control
- degree of penetration into Matrigel (derivatives) [2]: reduced degree of penetration into Matrigel compared to the untreated control
- expression of EGFR protein (derivatives) [3]: reduced expression of ANO1 and EGFR proteins compared to the untreated control

SMILES: CCN(Cc1ccc2ccccc2c1)CC(O)c1ccc(CN2Cc3ccccc3C2=O)cc1 (stereo not shown) [AON-MG23-06, 2-(4-(2-(ethyl(naphthalen-2-ylmethyl)amino)-1-hydroxyethyl)benzyl)isoindolin-1-one]
- degree of penetration into Matrigel (derivatives) [2]: reduced degree of penetration into Matrigel compared to the untreated control

SMILES: COc1cc(N2CCC(N3CCN(C)CC3)CC2)ccc1Nc1ncc(Cl)c(Nc2ccccc2N(C2CC2)S(C)(=O)=O)n1 [AON-MG23-01, N-(2-((5-chloro-2-((2-methoxy-4-(4-(4-methylpiperazin-1-yl)piperidin-1-yl)phenyl)amino)pyrimidin-4-yl)amino)phenyl)-N-cyclopropylmethanesulfonamide]
- inhibition of proliferation of U87-MG cells [4]: inhibits the proliferation of U87-MG cells
- degree of penetration into Matrigel [5]: reduced degree of penetration into Matrigel compared to the untreated control

SMILES: COc1cc(N2CCC(N(C)C)CC2)ccc1Nc1ncc(Cl)c(Nc2ccccc2N(C2CC2)S(C)(=O)=O)n1 [AON-MG23-02, N-(2-((5-chloro-2-((4-(4-(dimethylamino)piperidin-1-yl)-2-methoxyphenyl)amino)pyrimidin-4-yl)amino)phenyl)-N-cyclopropylmethanesulfonamide]
- inhibition of proliferation of U87-MG cells [4]: inhibits the proliferation of U87-MG cells
- expression of EGFR protein (comparison) [6]: reduces the expression of ANO1, EGFR, and pEGFR proteins compared to the untreated control, the EGFR inhibitor-treated group, the ANO1 inhibitor-treated group, and the EGFR inhibitor and ANO1 inhibitor combination-treated group
- degree of penetration into Matrigel (comparison with EGFR inhibitor and ANO1 inhibitor) [7]: reduced degree of penetration into Matrigel compared to the untreated control, the EGFR inhibitor-treated group, and the ANO1 inhibitor-treated group
- expression of pEGFR protein (comparison) [8]: reduces the expression of ANO1, EGFR, and pEGFR proteins compared to the untreated control, the EGFR inhibitor-treated group, the ANO1 inhibitor-treated group, and the EGFR inhibitor and ANO1 inhibitor combination-treated group
- degree of penetration into Matrigel [5]: reduced degree of penetration into Matrigel compared to the untreated control
- expression of ANO1 protein (comparison) [9]: reduces the expression of ANO1, EGFR, and pEGFR proteins compared to the untreated control, the EGFR inhibitor-treated group, the ANO1 inhibitor-treated group, and the EGFR inhibitor and ANO1 inhibitor combination-treated group

SMILES: O=C1c2ccccc2CN1Cc1ccc(CCP(=O)(Cc2ccc3ccccc3c2)Cc2ccc3ccccc3c2)cc1 [AON-MG23-07, 2-(4-(2-(bis(naphthalen-2-ylmethyl)phosphoryl)ethyl)benzyl)isoindolin-1-one]
- degree of penetration into Matrigel (derivatives) [2]: reduced degree of penetration into Matrigel compared to the untreated control

SMILES: NC(=O)N(CCc1ccc(CN2Cc3ccccc3C2=O)cc1)Cc1ccc2ccccc2c1 [AON-MG23-08, 1-(naphthalen-2-ylmethyl)-1-(4-((1-oxoisoindolin-2-yl)methyl)phenethyl)urea]
- expression of ANO1 protein (derivatives) [1]: reduced expression of ANO1 and EGFR proteins compared to the untreated control
- degree of penetration into Matrigel (derivatives) [2]: reduced degree of penetration into Matrigel compared to the untreated control
- expression of EGFR protein (derivatives) [3]: reduced expression of ANO1 and EGFR proteins compared to the untreated control
